Drawing on PubChem BioAssay (NCI), this text covers TGI and GI50 for 9 compounds.

Molecules are shown by their SMILES.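 Grown in 96-well plates, cells were treated for 48 hours with each compound at five concentrations. Insufficient inhibition: endpoint recorded as highest concentration tested. GI50 is the concentration that inhibits growth by half. TGI denotes the concentration required for complete inhibition of growth.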 Where only a bound is given, the exact number is not on record here.

Assay in all cases: DTP human tumour cell line panel, 48 h
Assay [1] relates to CAKI-1 renal.
The subject of assay [2] is SNB-75 CNS.
Assay [3] deals with A498 renal.
The subject of assay [4] is TK-10 renal.
Assay [5] relates to SF-539 CNS.
In assay [6] the test system is SK-MEL-2 melanoma.
In assay [7] the test system is HL-60(TB) leukemia.
Assay [8] relates to EKVX NSCLC.
For assay [9], the system named is CCRF-CEM leukemia.
The subject of assay [10] is MALME-3M melanoma.
The test system of assay [11] is SR leukemia.

Broadly, the TGI is the concentration giving total growth inhibition. Low values mean greater sensitivity of the cells, high ones lower sensitivity of the cells. As for `Oc1ccc(NCn2c(=S)sc3ccccc32)cc1`, the TGI in [1], in assay [2], in assay [3], in assay [4], in assay [5] and in assay [6] was above 100 µM in each case. For the same compound, the TGI in assay [7] is above 100 µM; in [8], above 100 µM; in [9], 92 µM; in [10], above 100 µM.
Consider `CON(C)C(=O)C(Cc1ccccc1)NC(=O)OCc1ccccc1` (stereo unspecified), for which the TGI in [1], in assay [2], in assay [3], in assay [4], in [5] and in assay [6] was above 100 µM throughout. Moreover, the concentration for total growth inhibition (TGI) in assay [7], in assay [8], in [11], in assay [9] and in assay [10] was above 100 µM throughout.
Regarding `CO[C@](C(=O)OC[C@H]1[C@@H](COC(C)=O)[C@@H]2O[C@H]1c1cc3c(cc12)OCO3)(c1ccccc1)C(F)(F)F`, the TGI in assay [1] is above 100 µM; in assay [2], 71.5 µM; in [3], above 100 µM; in [4] it was above 100 µM; in assay [6], 91.3 µM; in assay [8] it was 98.8 µM. The TGI in assay [11], in [9] and in assay [10] was above 100 µM in each case.
What is called GI50 is the concentration giving 50% growth inhibition. Take `CCCCCCOc1ccc(/C=N/Nc2cc(C)nc3ccc(Cl)cc23)cc1`: the GI50 in assay [1] was 1.65 µM; in [2] it was 1.81 µM; in [3], 1.77 µM; in assay [4], 1.89 µM; in assay [5] it was 1.84 µM; in assay [6] it was 1.72 µM. Further, the GI50 in assay [7] was 1.39 µM; in [11], 0.336 µM; in assay [10] it was 1.91 µM. Further, the TGI in assay [1] was found to be 3.06 µM; in assay [2], 3.43 µM; in assay [3] it was 3.4 µM; in assay [4], 3.32 µM; in assay [5], 3.26 µM; in assay [6] it was 3.24 µM. In addition, the TGI in [7] is 3.38 µM; in assay [11], 1.6 µM; in assay [10], 3.44 µM.
For the compound `CCn1cnc2c(=S)nc(N)[nH]c21`, the concentration for total growth inhibition (TGI) in assay [2], in assay [4], in [5], in [7], in assay [8] and in assay [11] was above 100 µM each time. Besides, the TGI in assay [9] and in [10] was above 100 µM throughout.
In the case of `O=C(CC1Sc2ccccc2NC1=O)Nc1ccccc1[N+](=O)[O-]` (stereo unspecified), the concentration for total growth inhibition (TGI) in [1], in [2], in assay [3], in [4], in assay [5] and in assay [6] was above 100 µM each time. The total growth inhibition concentration (TGI) in assay [7], in [8], in [11], in assay [9] and in assay [10] was above 100 µM each time.
In the case of `Cc1ccc(C(=O)OC(C(=O)O)C(OC(=O)c2ccc(C)cc2)C(=O)O)cc1` (stereo unspecified) (tested in a mixture with another compound), the total growth inhibition concentration (TGI) in [1] came to 21.2 µM; in assay [2], 14.8 µM; in assay [3], 24.5 µM; in [5] it was 25.2 µM; in [6], 23.5 µM; in assay [7], 4.08 µM. Besides, the TGI in assay [8] was 26.6 µM; in assay [9], 17 µM; in assay [10], 12 µM.
In the case of `O=C1OC(c2ccccc2)=N/C1=C\c1ccc([N+](=O)[O-])cc1`, the TGI in assay [1] is above 100 µM; in [2] it was above 100 µM; in [3], above 100 µM; in assay [4], above 100 µM; in assay [5], above 100 µM; in assay [6], 86 µM. For the same compound, the concentration for total growth inhibition (TGI) in [7] was above 100 µM; in [8], above 100 µM; in [11], 79.6 µM; in assay [9], 68.3 µM.
For the compound `CCOC(=O)c1csc(NC(=O)CN2CCCC2)n1`, the TGI in assay [1], in [2], in assay [3], in [4], in assay [5] and in assay [6] was above 100 µM throughout. Also, the TGI in [7], in [8], in [11] and in [9] was above 100 µM each time.
